The source of these data is ChEMBL document CHEMBL5528008, “Design and synthesis of the first PARP-1 and proteasome dual inhibitors to treat breast cancer” (Eur J Med Chem, 2024).

Activity calls are given as the source filed them. No cut-off for these calls is given here.

Experiment [1] concerns the target T1, Poly [ADP-ribose] polymerase 1 (Homo sapiens, UniProt P09874). In words: Inhibition of PARP-1 (unknown origin) assessed as fold change in inhibition using Femto-ECL as substrate preincubated for 2.7 hrs followed by substrate addition by chemiluminescence assay.
The next experiment relates to MCF7. In words: Cytotoxicity against human MCF7 cells assessed as inhibition of cell growth incubated for 72 hrs by MTT assay. The class given is functional, cell-based. The following applies: MCF7, 72 h.
Experiment [2] relates to BT-549. Description: Induction of apoptosis in human BT-549 cells assessed as upregulation of cleaved caspase-3 expression incubated for 48 hrs by Western blotting analysis. The class given is functional, cell-based.
The subject of experiment [3] is BT-549. In words: Induction in cell cycle arrest in human BT-549 cells assessed as downregulation of CDK1 expression at 0.05 uM incubated for 48 hrs by Western blotting analysis. The class given is functional, cell-based.
In experiment [4] the test system is BT-549. Description: Induction of DNA damage in human BT-549 cells assessed as decrease in ubiquitin localization in nucleus at 0.125 uM incubated for 48 hrs by fluorescence confocal microscopic analysis. The class given is functional, cell-based.
Experiment [5] concerns BT-549. In words: Induction of apoptosis in human BT-549 cells assessed as increase in early apoptotic cells incubated for 48 hrs by Annexin V-FITC/PI staining based flow cytometric analysis. The class given is functional, cell-based.
Another experiment concerns MDA-MB-231. Description: Cytotoxicity against human MDA-MB-231 cells assessed as inhibition of cell growth incubated for 72 hrs by MTT assay. Conditions: MDA-MB-231, 72 h. The class given is functional, cell-based.
Experiment [6] addresses T1, Poly [ADP-ribose] polymerase 1. In words: Inhibition of PARP-1 in human BT-549 cells assessed as downregulation of BRCA1 expression at 0.05 uM incubated for 48 hrs by immunoblotting analysis. The class given is cell-based.
The test system of experiment [7] is BT-549. In words: Induction of DNA damage in human BT-549 cells assessed as decrease in BRCA1 localization in nucleus at 0.125 uM incubated for 48 hrs by fluorescence confocal microscopic analysis. The class given is functional, cell-based.
The test system of experiment [8] is BT-549. In words: Inhibition of colony formation in human BT-549 cells assessed as reduction in colony number incubated for 14 days by crystal violet staining based analysis. The class given is functional, cell-based. The following applies: time 14.0 day.
Experiment [9] concerns BT-549. In words: Induction in cell cycle arrest in human BT-549 cells assessed as upregulation of p21 expression at 0.05 uM incubated for 48 hrs by Western blotting analysis. The class given is functional, cell-based.
Experiment [10] addresses T1, Poly [ADP-ribose] polymerase 1. Description: Inhibition of PARP-1 in human BT-549 cells assessed as downregulation of P-ATM expression at 0.05 uM incubated for 48 hrs by immunoblotting analysis. The class given is cell-based.
The test system of experiment [11] is BT-549. In words: Induction of DNA damage in human BT-549 cells assessed as upregulation of gamma-H2AX level at 0.05 uM incubated for 48 hrs by immunoblotting analysis. The class given is functional, cell-based.
In experiment [12] the test system is BT-549. Description: Induction in cell cycle arrest in human BT-549 cells assessed as downregulation of CDK1 expression at 0.5 uM incubated for 48 hrs by Western blotting analysis. The class given is functional, cell-based.
Experiment [13] has as its target T1, Poly [ADP-ribose] polymerase 1. In words: Inhibition of PARP-1 in human BT-549 cells assessed as downregulation of RAD51 expression at 0.5 uM incubated for 48 hrs by immunoblotting analysis. The class given is cell-based.
Experiment [14] has the same target. In words: Inhibition of PARP-1 in human BT-549 cells assessed as downregulation of BRCA2 mRNA expression incubated for 48 hrs by RT-qPCR analysis. The class given is cell-based.
Experiment [15] has the same target. In words: Inhibition of PARP-1 in human BT-549 cells assessed as downregulation of BRCA1 mRNA expression incubated for 48 hrs by RT-qPCR analysis. The class given is cell-based.
Experiment [16] concerns BT-549. In words: Inhibition of colony formation in human BT-549 cells assessed as reduction in colony size incubated for 14 days by crystal violet staining based analysis. The class given is functional, cell-based. Conditions: time 14.0 day.
Experiment [17] deals with BT-549. In words: Induction of DNA damage in human BT-549 cells assessed as decrease in polyubiquitination in nucleus at 0.125 uM incubated for 48 hrs by fluorescence confocal microscopic analysis. The class given is functional, cell-based.
Experiment [18] has as its system BT-549. Description: Induction of apoptosis in human BT-549 cells assessed as upregulation of cleaved PARP expression incubated for 48 hrs by Western blotting analysis. The class given is functional, cell-based.
Experiment [19] concerns BT-549. Description: Induction in cell cycle arrest in human BT-549 cells assessed as upregulation of p21 expression at 0.5 uM incubated for 48 hrs by Western blotting analysis. The class given is functional, cell-based.
The subject of experiment [20] is BT-549. In words: Induction in cell cycle arrest in human BT-549 cells assessed as downregulation of Cyclin A2 expression at 0.5 uM incubated for 48 hrs by Western blotting analysis. The class given is functional, cell-based.
For experiment [21], the system named is BT-549. In words: Induction of DNA damage in human BT-549 cells assessed as upregulation of gamma-H2AX level at 0.5 uM incubated for 48 hrs by immunoblotting analysis. The class given is functional, cell-based.
In experiment [22] the target is T1, Poly [ADP-ribose] polymerase 1. Description: Inhibition of PARP-1 in human BT-549 cells assessed as downregulation of RAD51 mRNA expression incubated for 48 hrs by RT-qPCR analysis. The class given is cell-based.
Experiment [23] shares this target. In words: Inhibition of PARP-1 (unknown origin) using Femto-ECL as substrate preincubated for 2.7 hrs followed by substrate addition by chemiluminescence assay.
In experiment [24] the test system is BT-549. In words: Induction in cell cycle arrest in human BT-549 cells assessed as downregulation of Cyclin A2 expression at 0.05 uM incubated for 48 hrs by Western blotting analysis. The class given is functional, cell-based.
Experiment [25] relates to BT-549. Description: Induction of apoptosis in human BT-549 cells assessed as increase in late apoptotic cells incubated for 48 hrs by Annexin V-FITC/PI staining based flow cytometric analysis. The class given is functional, cell-based.
Experiment [26] concerns the target T1, Poly [ADP-ribose] polymerase 1. In words: Inhibition of PARP-1 in human BT-549 cells assessed as downregulation of RAD51 expression at 0.05 uM incubated for 48 hrs by immunoblotting analysis. The class given is cell-based.
Experiment [27] relates to BT-549. Description: Cytotoxicity against human BT-549 cells assessed as inhibition of cell growth incubated for 72 hrs by MTT assay. The class given is functional, cell-based. Conditions: BT-549, 72 h.
Experiment [28] concerns the target T1, Poly [ADP-ribose] polymerase 1. Description: Inhibition of PARP-1 in human BT-549 cells assessed as downregulation of FANCD2 mRNA expression incubated for 48 hrs by RT-qPCR analysis. The class given is cell-based.
The target of another experiment is 20S proteasome. Description: Inhibition of 20S proteasome (unknown origin) using […] as substrate. The class given is protein-complex assay, Homo sapiens.
The target in experiment [29] is T1, Poly [ADP-ribose] polymerase 1. In words: Inhibition of PARP-1 in human BT-549 cells assessed as downregulation of P-ATM expression at 0.5 uM incubated for 48 hrs by immunoblotting analysis. The class given is cell-based.
Experiment [30] has as its system BT-549. In words: Induction of DNA damage in human BT-549 cells assessed as increase in gamma-H2AX localization in nucleus at 0.125 uM incubated for 48 hrs by fluorescence confocal microscopic analysis. The class given is functional, cell-based.
Experiment [31] deals with T1, Poly [ADP-ribose] polymerase 1. Description: Inhibition of PARP-1 in human BT-549 cells assessed as downregulation of BRCA1 expression at 0.5 uM incubated for 48 hrs by immunoblotting analysis. The class given is cell-based.
For experiment [32], the system named is BT-549. In words: Induction of DNA damage in human BT-549 cells assessed as increase in polyubiquitination at 0.125 uM incubated for 48 hrs by fluorescence confocal microscopic analysis. The class given is functional, cell-based.

T1 sequence (P09874 whole entry): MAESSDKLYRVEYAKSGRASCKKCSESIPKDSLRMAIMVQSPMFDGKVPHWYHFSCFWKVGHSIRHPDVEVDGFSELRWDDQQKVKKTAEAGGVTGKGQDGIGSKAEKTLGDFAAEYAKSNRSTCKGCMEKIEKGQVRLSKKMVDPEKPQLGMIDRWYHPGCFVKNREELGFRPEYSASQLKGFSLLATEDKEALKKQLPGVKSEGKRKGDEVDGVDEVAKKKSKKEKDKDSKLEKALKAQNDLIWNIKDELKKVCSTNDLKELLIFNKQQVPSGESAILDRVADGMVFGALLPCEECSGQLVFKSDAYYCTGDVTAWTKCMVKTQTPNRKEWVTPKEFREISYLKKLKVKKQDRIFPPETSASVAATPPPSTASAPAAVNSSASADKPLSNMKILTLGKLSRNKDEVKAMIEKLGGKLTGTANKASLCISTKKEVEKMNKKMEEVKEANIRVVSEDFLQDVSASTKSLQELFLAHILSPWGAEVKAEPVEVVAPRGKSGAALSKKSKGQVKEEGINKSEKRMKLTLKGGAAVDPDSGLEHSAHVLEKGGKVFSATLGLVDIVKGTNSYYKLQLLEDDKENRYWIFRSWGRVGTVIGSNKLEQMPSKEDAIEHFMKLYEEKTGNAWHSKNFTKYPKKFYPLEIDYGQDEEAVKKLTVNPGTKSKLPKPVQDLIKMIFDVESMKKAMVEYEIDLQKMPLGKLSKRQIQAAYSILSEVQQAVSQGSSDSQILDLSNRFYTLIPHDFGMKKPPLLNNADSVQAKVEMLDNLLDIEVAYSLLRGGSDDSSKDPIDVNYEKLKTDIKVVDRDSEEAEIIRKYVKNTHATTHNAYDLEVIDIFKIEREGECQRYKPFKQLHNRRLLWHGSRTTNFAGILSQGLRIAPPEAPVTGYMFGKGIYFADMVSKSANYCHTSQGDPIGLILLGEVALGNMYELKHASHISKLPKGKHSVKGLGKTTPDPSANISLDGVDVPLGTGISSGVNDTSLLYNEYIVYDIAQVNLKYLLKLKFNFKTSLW

As for `CC(C)C[C@H](NC(=O)[C@H](CC(C)C)NC(=O)c1cc(Cc2nn(C)c(=O)c3ccccc23)ccc1F)B1O[C@@H]2C[C@@H]3C[C@@H](C3(C)C)[C@]2(C)O1`, in experiment [1], the fold change (FC) stood at 100.
Take `CSCC[C@H](NC(=O)c1cc(Cc2n[nH]c(=O)c3ccccc23)ccc1F)C(=O)N[C@@H](CC(C)C)B1O[C@@H]2C[C@@H]3C[C@@H](C3(C)C)[C@]2(C)O1`: the IC50 worked out at 60.1 nM with MCF7; 67.6 nM in the experiment on MDA-MB-231; 102 nM in [23]; 12.4 nM with BT-549 [27]; 82.3 nM at 20S proteasome. The Activity entry in the experiment on BT-549 [2], in the experiment on BT-549 [5], in the experiment on BT-549 [18] and in the experiment with BT-549 [25] was “Dose-Dependent Effect” in each case. Further, the result in the experiment with BT-549 [3], in the experiment on BT-549 [4], with BT-549 [7], in the experiment with BT-549 [9], with BT-549 [11] and in the experiment with BT-549 [12] was Active. In addition, the outcome with BT-549 [17], in the experiment with BT-549 [19], with BT-549 [20], in the experiment on BT-549 [21], in the experiment on BT-549 [24] and in the experiment on BT-549 [30] was Active. Further, in the experiment on BT-549 [32], the result was Active. Moreover, the inhibition result in experiment [6], in experiment [10], in experiment [13], in experiment [26], in experiment [29] and in experiment [31] was “Active” throughout. In addition, the inhibition result (with BT-549 [8]; in experiment [14]; in experiment [15]; in the experiment with BT-549 [16]; in experiment [22]; in experiment [28]) was “Dose-Dependent Effect” each time.
